How the values were obtained:
Experiment in all cases: relative viability (nuclei count vs DMSO), 5 days (fraction); higher = more cells survive
[1] = compound: Nc1nc(Nc2ccc3c(c2)CC[C@@H](N2CCCC2)CC3)nn1-c1cc2c(nn1)-c1ccccc1CCC2 [Bemcentinib] + CCNC(=O)c1noc(-c2cc(C(C)C)c(O)cc2O)c1-c1ccc(CN2CCOCC2)cc1 [Luminespib] (partner 0.01 µM)
In short: (§1)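 Lung cancer cell lines, seeded in 1536-well plates, were treated the following day by pin tool with a single drug or with five library-drug doses (not always all listed) in √10 steps on top of a fixed anchor-drug dose. Cells were fixed and nuclei stained in one step after 5 days, and nuclei were counted. Relative viability is the nuclei count for treated wells divided by that for vehicle wells, reported as medians of duplicate plates.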

[2] = compound: CNC(=O)c1ccccc1Sc1ccc2c(/C=C/c3ccccn3)n[nH]c2c1 [Axitinib] + CC(C)C[C@H](NC(=O)[C@H](Cc1ccccc1)NC(=O)c1cnccn1)B(O)O [Bortezomib] (partner 0.002 µM)
In short: as §1

[3] = compound: CC1=CC=C(C=C1)C(=O)CN2C3=C(CCCC3)SC2=N [Pifithrin_alpha] + Nc1nc2[nH]cc(CCc3ccc(C(=O)N[C@@H](CCC(=O)O)C(=O)O)cc3)c2c(=O)[nH]1 [Pemetrexed] (partner 0.2 µM)
In short: as §1

[4] = compound: CNC(=O)c1ccccc1Sc1ccc2c(/C=C/c3ccccn3)n[nH]c2c1 [Axitinib] + CCNC(=O)c1noc(-c2cc(C(C)C)c(O)cc2O)c1-c1ccc(CN2CCOCC2)cc1 [Luminespib] (partner 0.01 µM)
In short: as §1

Cell Line	relative viability ([1]; first compound 0.04 µM)	relative viability ([1]; first compound 0.1265 µM)	relative viability ([1]; first compound 0.4 µM)	relative viability ([1]; first compound 1.265 µM)	relative viability ([1]; first compound 4 µM)	relative viability ([2]; first compound 0.005 µM)	relative viability ([2]; first compound 0.01581 µM)	relative viability ([2]; first compound 0.05 µM)	relative viability ([2]; first compound 0.1581 µM)	relative viability ([2]; first compound 0.5 µM)	relative viability ([3]; first compound 1 µM)	relative viability ([3]; first compound 3.162 µM)	relative viability ([3]; first compound 10 µM)	relative viability ([3]; first compound 31.62 µM)	relative viability ([3]; first compound 100 µM)	relative viability ([4]; first compound 0.005 µM)	relative viability ([4]; first compound 0.01581 µM)	relative viability ([4]; first compound 0.05 µM)	relative viability ([4]; first compound 0.1581 µM)	relative viability ([4]; first compound 0.5 µM)
201T	1.07	1.05	1.14	1.07	1.14	1.14	1.08	1.06	1.07	1.11	0.315	0.337	0.296	0.29	0.295	1.04	1.04	1.09	0.989	1.04
A-427	1.04	1.09	0.934	0.822	0.737	1.07	1.04	0.988	1.06	1.13	0.827	1	0.87	0.759	0.905	0.998	1.03	1.03	0.926	0.919
ABC-1	0.456	0.682	0.801	1.02	0.741	0.34	0.307	0.315	0.254	0.289						0.777	0.727	0.444		0.552
BEN	0.178	0.395	0.563	0.199	0.236	0.804	0.781	0.554	0.75	0.543	0.523	0.741	0.741	0.746	0.629	0.486	0.309	0.509	0.372	0.226
CAL-12T	0.273	0.462	0.388	0.363	0.453	1.03	0.978	0.955	1.11	0.965	1.31	1.29	1.1		1.19	0.96	0.302	0.216	0.672	0.364
COR-L23	0.628	0.903	0.807	0.827	0.913	1.05	1.04	0.943	0.959	1.2	0.19	0.201	0.196		0.181	0.667	0.614	0.744	0.631	0.749
COR-L 105	0.741	0.839	0.893	0.704	0.783	0.748	0.868	0.798	0.758	0.92	1.13	1	0.951	0.926	1.03	0.628	0.922	0.669	0.64	0.81
Calu-6						1.11	0.944	0.956	1.1	0.996										
ChaGo-K-1	0.573	0.542	0.701	0.843	0.587	0.953	0.919	1.13	1.05	1.16	0.251	0.252	0.27	0.263	0.249	0.591	0.703	0.44	0.495	0.533
EBC-1						0.631	0.657	0.521	0.565	0.629										
EKVX	0.825	0.878	0.923	0.838	0.863	1.13	1.08	0.98	1.03	0.997	0.514	0.352	0.37	0.266	0.316	0.879	0.86	0.828	0.878	0.965
EMC-BAC-2	1.24	1.29	1.16	1.19	1.2	1.13	1.04	1.09	1.13	1.07	0.443	0.435	0.416	0.383	0.418	1.27	1.12	1.19	1.21	1.25
EPLC-272H	0.25	0.658	0.279	0.353	0.318	0.986	0.804	0.857	0.994	0.892	0.444	0.3	0.249	0.295	0.382	0.332	0.376	0.338	0.251	0.314
H3255	0.745	1.07	0.793	0.777	0.747	0.672	0.778	0.856	0.962	0.6	0.507	0.533	0.537	0.532	0.505	0.922	0.609	0.935	0.83	0.828
HARA	0.603	0.983	0.719	1.03	0.597	1.09	1.07	1.1	1.13	1.14	0.234	0.232	0.266	0.248	0.23	0.791	0.823	0.901	0.721	0.639

From the supplement of paper PMC10307832
